What was measured:
Assay type in all cases: cell-based, human
M1 macrophages [1] = assay: Caspase-3/7 induction, IncuCyte, M1; details: over 6 days, BYbe 250-2 nM, Camptothecin, Staurosporine 5 μM
Protocol: (§1) Human PBMC derived from blood leukocyte platelet-apheresis cones (NHSBT Oxford) were banked as frozen aliquots. Prior to an assay being performed, 2 vials of frozen cells, each containing 5×10^7 cells in 1 ml, were thawed in a 37° C. water bath and then added to 50 ml complete media (RPMI 1640+2 mM GlutaMAX+1% Pen/Strep, all previous supplied by Invitrogen, +10% Fetal Bovine Serum (FBS), Sigma Aldrich). Cells were spun (500 g, 5 min, at RT) and re-suspended in 30 ml complete media to wash and spun again. Cells were resuspended in 20 ml MACS buffer (PBS, pH 7.2, 0.5% bovine serum albumin (BSA), and 2 mM EDTA, Sigma Aldrich) and counted on a ChemoMetec NucleoCounter NC-3000 to determine concentration and viability. PBMCs from one donor (UCB-Cones 802) was used in this assay. Monocyte isolation was performed using the Pan Monocyte Isolation Kit (Miltenyi Biotec, cat no. 130-096-537) and LS columns (Miltenyi Biotec, cat no 130-042-401) according to manufacturer's instructions. 100 μl of cells were removed and stored on ice to check monocyte purity post isolation. Isolated cells were stained with BV421 mouse anti-human CD14 (BD Biosciences, cat no. 563743) to check for purity of monocytes using FACS. M-CSF (Sigma Aldrich, cat no. SRP3110) and GM-CSF (R&D Systems, cat no. 215-GM/CF) were prepared at 100 μg/ml. Cells were prepared in M1 media (complete media+50 ng/ml GM-CSF) or M2 media (complete media+50 ng/ml M-CSF) at a concentration of 2.5×10^5 cells/ml. 200 μl cells were plated into two Corning 96 well Black polystyrene microplates (Sigma Aldrich) and incubated at 37° C., 5% CO2. Following a 3-day incubation at 37° C., 5% CO2, the plate was spun (500 g, 5 min, RT), buffer was aspirated, the cells were washed once with PBS and then resuspended in 200 μL of M1 media or M2 media. […] The caspase dye was measured with the green laser (350 ms) and the cytotox dye was measured with a red laser (650 ms). The green dye signal was analysed using Incucyte® Zoom2016B. […]

M1 macrophages [2] = assay: Macrophage viability, CellTiter-Glo, M1; details: 24 hr, BYbe 250-2 nM, Camptothecin, Staurosporine 5 μM
Protocol: (§2) Human PBMC derived from blood leukocyte platelet-apheresis cones (NHSBT Oxford) were banked as frozen aliquots. Prior to an assay being performed, 2 vials of frozen cells, each containing 5×10^7 cells in 1 ml, were thawed in a 37° C. water bath and then added to 50 ml complete media (RPMI 1640+2 mM GlutaMAX+1% Pen/Strep, all previous supplied by Invitrogen, +10% Fetal Bovine Serum (FBS), Sigma Aldrich). Cells were spun (500 g, 5 min, at RT) and re-suspended in 30 ml complete media to wash and spun again. Cells were resuspended in 20 ml MACS buffer (PBS, pH 7.2, 0.5% bovine serum albumin (BSA), and 2 mM EDTA, Sigma Aldrich) and counted on a ChemoMetec NucleoCounter NC-3000 to determine concentration and viability. PBMCs from one donor (UCB-Cones 802) was used in this assay.
(§3) Monocyte isolation was performed using the Pan Monocyte Isolation Kit (Miltenyi Biotec, cat no. 130-096-537) and LS columns (Miltenyi Biotec, cat no 130-042-401) according to manufacturer's instructions. 100 μl of cells were removed and stored on ice to check monocyte purity post isolation. […]
(§4) One microplate was incubated for a further 24 hours in 37° C. incubator with 5% CO2 before being used to assess cell viability with CellTiter-Glo®. […] The plate was then read on the BMG Labtech PHERAstar FSX microplate reader using the CellTiter-Glo program.

M2 macrophages [3] = assay: Macrophage viability, CellTiter-Glo, M2; details: 24 hr, BYbe 250-2 nM, Camptothecin, Staurosporine 5 μM
Protocol: as §2, §3, §4

M2 macrophages [4] = assay: Caspase-3/7 induction, IncuCyte, M2; details: over 6 days, BYbe 250-2 nM, Camptothecin, Staurosporine 5 μM
Protocol: as §1

Structure (SMILES)	levels of Caspase-3/7 (M1 macrophages [1])	cell viability (CellTiter-Glo) (M1 macrophages [2])	cell viability (CellTiter-Glo) (M2 macrophages [3])	levels of Caspase-3/7 (M2 macrophages [4])
CC[C@@]1(O)C(=O)OCc2c1cc1n(c2=O)Cc2cc3ccccc3nc2-1 [Camptothecin]	significant levels	reduced the viability	reduced the viability	significant levels
CN[C@@H]1C[C@H]2O[C@@](C)([C@@H]1OC)n1c3ccccc3c3c4c(c5c6ccccc6n2c5c31)C(=O)NC4 [Staurosporine]	very low	little or no viable cells detected	little or no viable cells detected	very low
